From the supplement of paper PMC6045584
± gives the standard deviation of the averaged measurements.

compound: CC(=O)O[C@H]1C(=O)[C@@]2(C)[C@H]([C@H](OC(=O)c3ccccc3)[C@]3(O)C[C@H](OC(=O)[C@H](O)[C@@H](NC(=O)c4ccccc4)c4ccccc4)C(C)=C1C3(C)C)[C@]1(OC(C)=O)CO[C@@H]1C[C@@H]2O [PACLITAXEL]; experiment: surviving fraction relative to DMSO-only wells; higher = less growth inhibition; conditions: 50 nM; exposure time: 5 days
Method in brief: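 Five days of continuous inhibitor exposure, at 0.5, 1, 5, 10, 50, 100, 500 and 1000 nM, followed a 24-hour period after log-phase tumour cell lines were seeded at 250–500 cells per well in 384-well plates. Surviving fraction was derived from CellTiter-Glo luminescence relative to the median of DMSO-only wells. Plates were read after 10 minutes at room temperature, and lines screened three times were kept only if replicate Pearson r >0.7 and median Z' >0.3.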

| Test System | surviving fraction |
| --- | --- |
| MFM223 BREAST | 0.0873 ± 0.012 |
| MG63 BONE | 0.0463 ± 0.0055 |
| MHM BONE | 0.243 ± 0.0095 |
| NCIH441 LUNG | 0.261 ± 0.013 |
| NOS1 BONE | 0.287 ± 0.024 |
| NY BONE | 0.0363 ± 0.0055 |
| OS25HAL BONE | 0.077 ± 0.0062 |
| OSHN BONE | 0.0273 ± 0.00058 |
| RDES SOFT TISSUE | 0.0673 ± 0.009 |
| SCC47 HEADNECK | 0.143 ± 0.01 |
| SCC90 HEADNECK | 0.119 ± 0.024 |
| SG27 HEADNECK | 0.888 ± 0.1 |
| SG28 HEADNECK | 0.463 ± 0.072 |
| SG31 HEADNECK | 0.271 ± 0.037 |
| SG32 HEADNECK | 0.281 ± 0.062 |
| SG43 HEADNECK | 0.471 ± 0.0079 |
| SIHA CERVIX | 0.0897 ± 0.0031 |
| SJSA1 BONE | 0.135 ± 0.0021 |
| SKBR3 BREAST | 0.135 ± 0.023 |
| SNU475 LIVER | 0.142 ± 0.014 |
| SUM44 BREAST | 0.241 ± 0.019 |
| SUM149.B1*.S BREAST | 0.1 ± 0.0056 |
| SUM159 BREAST | 0.12 ± 0.0095 |
| SYO1 SYNOVIAL | 0.056 ± 0.0057 |
| T47D BREAST | 0.226 ± 0.011 |
| U2OS BONE | 0.106 ± 0.0087 |
| VCAP PROSTATE | 0.077 ± 0.015 |
| VP229 BREAST | 0.338 ± 0.013 |
| YAMATO SYNOVIAL | 0.377 ± 0.012 |
| ZR751 BREAST | 0.389 ± 0.042 |

same assay, conditions: 100 nM; exposure time: 5 days

| Test System | surviving fraction |
| --- | --- |
| MFM223 BREAST | 0.0663 ± 0.003 |
| MG63 BONE | 0.038 ± 0.0044 |
| MHM BONE | 0.216 ± 0.011 |
| NCIH441 LUNG | 0.303 ± 0.018 |
| NOS1 BONE | 0.252 ± 0.013 |
| NY BONE | 0.026 ± 0.0076 |
| OS25HAL BONE | 0.0677 ± 0.011 |
| OSHN BONE | 0.0243 ± 0.00058 |
| RDES SOFT TISSUE | 0.0537 ± 0.0058 |
| SCC47 HEADNECK | 0.141 ± 0.0051 |
| SCC90 HEADNECK | 0.0713 ± 0.011 |
| SG27 HEADNECK | 0.911 ± 0.097 |
| SG28 HEADNECK | 0.505 ± 0.0085 |
| SG31 HEADNECK | 0.252 ± 0.033 |
| SG32 HEADNECK | 0.275 ± 0.02 |
| SG43 HEADNECK | 0.467 ± 0.091 |
| SIHA CERVIX | 0.0817 ± 0.004 |
| SJSA1 BONE | 0.113 ± 0.0021 |
| SKBR3 BREAST | 0.139 ± 0.013 |
| SNU475 LIVER | 0.138 ± 0.0065 |
| SUM44 BREAST | 0.213 ± 0.0074 |
| SUM149.B1*.S BREAST | 0.0972 ± 0.0036 |
| SUM159 BREAST | 0.107 ± 0.0015 |
| SYO1 SYNOVIAL | 0.0522 ± 0.0059 |
| T47D BREAST | 0.222 ± 0.022 |
| U2OS BONE | 0.0817 ± 0.0093 |
| VCAP PROSTATE | 0.0693 ± 0.0068 |
| VP229 BREAST | 0.27 ± 0.019 |
| YAMATO SYNOVIAL | 0.359 ± 0.021 |
| ZR751 BREAST | 0.437 ± 0.057 |

same assay, conditions: 500 nM; exposure time: 5 days

| Test System | surviving fraction |
| --- | --- |
| MFM223 BREAST | 0.062 ± 0.0051 |
| MG63 BONE | 0.0287 ± 0.0015 |
| MHM BONE | 0.187 ± 0.0059 |
| NCIH441 LUNG | 0.284 ± 0.013 |
| NOS1 BONE | 0.214 ± 0.039 |
| NY BONE | 0.0307 ± 0.0038 |
| OS25HAL BONE | 0.0523 ± 0.0029 |
| OSHN BONE | 0.018 |
| RDES SOFT TISSUE | 0.056 ± 0.011 |
| SCC47 HEADNECK | 0.1213 ± 0.00058 |
| SCC90 HEADNECK | 0.07 ± 0.012 |
| SG27 HEADNECK | 1.01 ± 0.04 |
| SG28 HEADNECK | 0.458 ± 0.02 |
| SG31 HEADNECK | 0.267 ± 0.045 |
| SG32 HEADNECK | 0.244 ± 0.02 |
| SG43 HEADNECK | 0.477 ± 0.07 |
| SIHA CERVIX | 0.101 ± 0.0087 |
| SJSA1 BONE | 0.107 ± 0.01 |
| SKBR3 BREAST | 0.123 ± 0.015 |
| SNU475 LIVER | 0.132 ± 0.029 |
| SUM44 BREAST | 0.218 ± 0.0062 |
| SUM149.B1*.S BREAST | 0.091 ± 0.0063 |
| SUM159 BREAST | 0.124 ± 0.0017 |
| SYO1 SYNOVIAL | 0.0456 ± 0.0087 |
| T47D BREAST | 0.214 ± 0.0067 |
| U2OS BONE | 0.0593 ± 0.0085 |
| VCAP PROSTATE | 0.0677 ± 0.022 |
| VP229 BREAST | 0.279 ± 0.052 |
| YAMATO SYNOVIAL | 0.346 ± 0.0061 |
| ZR751 BREAST | 0.397 ± 0.021 |

same assay, conditions: 1000 nM; exposure time: 5 days

| Test System | surviving fraction |
| --- | --- |
| MFM223 BREAST | 0.0632 ± 0.0075 |
| MG63 BONE | 0.03 ± 0.002 |
| MHM BONE | 0.177 ± 0.01 |
| NCIH441 LUNG | 0.304 ± 0.02 |
| NOS1 BONE | 0.21 ± 0.024 |
| NY BONE | 0.0293 ± 0.0057 |
| OS25HAL BONE | 0.0687 ± 0.017 |
| OSHN BONE | 0.022 ± 0.001 |
| RDES SOFT TISSUE | 0.0623 ± 0.004 |
| SCC47 HEADNECK | 0.115 ± 0.015 |
| SCC90 HEADNECK | 0.0663 ± 0.01 |
| SG27 HEADNECK | 0.849 ± 0.068 |
| SG28 HEADNECK | 0.487 ± 0.043 |
| SG31 HEADNECK | 0.273 ± 0.028 |
| SG32 HEADNECK | 0.218 ± 0.021 |
| SG43 HEADNECK | 0.433 ± 0.038 |
| SIHA CERVIX | 0.0943 ± 0.014 |
| SJSA1 BONE | 0.114 ± 0.017 |
| SKBR3 BREAST | 0.136 ± 0.028 |
| SNU475 LIVER | 0.137 ± 0.008 |
| SUM44 BREAST | 0.202 ± 0.011 |
| SUM149.B1*.S BREAST | 0.097 ± 0.0076 |
| SUM159 BREAST | 0.137 ± 0.02 |
| SYO1 SYNOVIAL | 0.048 ± 0.009 |
| T47D BREAST | 0.226 ± 0.023 |
| U2OS BONE | 0.059 ± 0.001 |
| VCAP PROSTATE | 0.0697 ± 0.0086 |
| VP229 BREAST | 0.293 ± 0.024 |
| YAMATO SYNOVIAL | 0.426 ± 0.016 |
| ZR751 BREAST | 0.449 ± 0.023 |
